Legend:
Type in all cases: cell-based
[1] = system: Normal human fibroblasts; test: Suppression of decrease in proliferation capability after hydrogen peroxide aging induction (MTT assay); conditions: 50 µM or 100 µM, 0.5 mM hydrogen peroxide aging induction; relative to untreated non-induced = 100; compared with only aging induction and with 100 µM reduced glutathione, p < 0.005
Experimental: Normal human fibroblasts were seeded in 96 well plates (3.0 × 10^3 cells/well, N = 3) and precultured for 24 hours (5% CO2, 37°C). As a medium, MEM-α, nucleosides medium (Gibco) containing fetal bovine serum (10% of serum-free medium was externally added) was used. Thereafter, the wells were washed once with PBS (-), then replaced with MEM-α, nucleoside medium containing fetal bovine serum (5% of serum-free medium was externally added) dissolved so that the final concentration of Sample 1 or Sample 2 was 50 µM or 100 µM, and further incubated for 30 minutes. Thereafter, fibroblasts were treated with a medium adjusted so that the final concentration of hydrogen peroxide was 0.5 mM to induce aging. Thereafter, an MTT assay was performed according to a conventional method, and the survival rate of fibroblasts was calculated as a relative value when the survival rate of cells in the test section in which neither treatment nor aging induction was performed was taken as 100.
For comparison, a test section in which only aging induction was performed and a test section in which reduced glutathione was 100 µM was set instead of Sample 1. […]

[2] = system: Normal human epidermal keratinocytes; test: as above; conditions: 50 µM or 100 µM, 0.5 mM hydrogen peroxide aging induction; relative to untreated non-induced = 100; compared with only aging induction
Experimental: Normal human epidermal keratinocytes were seeded in 96 well plates (1.0 × 10^4 cells/well, N = 3) and precultured for 24 hours (5%CO2, 37°C). As a medium, a commercially available keratinocyte growth medium (PromoCell) was used. Thereafter, the wells were washed once with PBS (-), then replaced with a keratinocyte growth medium dissolved so that the final concentration of Sample 1 was 50 µM or 100 µM, and further incubated for 30 minutes. Thereafter, normal human epidermal keratinocytes were treated with a medium adjusted to have a final concentration of hydrogen peroxide of 0.5 mM to induce aging. Thereafter, an MTT assay was performed according to a conventional method, and the survival rate of normal human epidermal keratinocytes was calculated as a relative value when the survival rate of cells in a test section in which neither the treatment with oxidized glutathione trisulfide nor the aging induction was performed was taken as 100.
For comparison, a test section in which only aging induction was performed without treatment with oxidized glutathione trisulfide was set.
Regarding the survival rate, a significant difference test (t-test, two-tailed) between the two groups of the test section of Sample 1 and the test section in which only aging induction was performed was performed respectively.

[3] = system: Normal human fibroblasts; test: Suppression of decrease in hyaluronic acid production capability due to aging induction (ELISA); conditions: 50 µM or 100 µM, 0.5 mM hydrogen peroxide, 24 hours; for hyaluronic acid production amount: relative value, compared with only aging induction
Experimental: Normal human fibroblasts were seeded in 24 well plates (8.0 × 10^4 cells/well, N = 3) and precultured for 24 hours (5% CO2, 37°C). As a medium, MEM-α, nucleosides medium (Gibco) containing fetal bovine serum (10% of serum-free medium was externally added) was used. Thereafter, the wells were washed once with PBS (-), then replaced with MEM-α, nucleoside medium containing fetal bovine serum (5% of serum-free medium was externally added) dissolved so that the final concentration of Sample 1 or Sample 2 was 50 µM or 100 µM, and further incubated for 30 minutes. Thereafter, fibroblasts were treated with a medium adjusted so that the final concentration of hydrogen peroxide was 0.5 mM to induce aging. Thereafter, the culture medium was changed to MEM-α, nucleoside medium containing fetal bovine serum (5% of serum-free culture medium was externally added) and incubated for 24 hours, and then the amount of hyaluronic acid was quantified by ELISA using a hyaluronic acid quantification kit (Cosmo Bio Inc.).
The hyaluronic acid production amount in each test section was shown as a relative value when the hyaluronic acid production amount in each sample and the test section in which aging induction was not performed was taken as 100. Regarding the hyaluronic acid production amount, a significant difference test (t-test, two-tailed) between the two groups of the test section for Sample 1 and the test section for which only the aging induction was performed respectively, and a significant difference test between the test section for Sample 2 and the test section for which only the aging induction was performed were each performed, and "*(p < 0.05)" was marked for those in which a significant difference was recognized.

[4] = system: Normal human epidermal keratinocytes; test: as above; conditions: 50 µM, 0.5 mM hydrogen peroxide, 24 hours
Experimental: Normal human epidermal keratinocytes were seeded in 24 well plates (1.0 × 10^5 cells/well, N = 3) and precultured for 24 hours (5%CO2, 37°C). As a medium, a commercially available keratinocyte growth medium (PromoCell) was used. Thereafter, the wells were washed once with PBS (-), then replaced with a keratinocyte growth medium dissolved so that the final concentration of Sample 1 was 50 µM, and further incubated for 30 minutes. Thereafter, normal human epidermal keratinocytes were treated with a medium adjusted to have a final concentration of hydrogen peroxide of 0.5 mM to induce aging. Thereafter, the medium was replaced with a new keratinocyte growth medium and incubated for 24 hours, and then the amount of hyaluronic acid was quantified by an ELISA method using a hyaluronic acid quantification kit (Cosmo Bio). For comparison, a test section not treated with oxidized glutathione trisulfide was provided.
The hyaluronic acid production amount in each of the test sections was shown as a relative value when the hyaluronic acid production amount in the test section in which neither oxidized glutathione trisulfide treatment nor aging induction was performed was taken as 100. […]

[5] = system: B16 mouse melanoma cells; test: Melanin production suppression test in cultured cells (absorbance at 405 nm); conditions: α-MSH 200 nM induction; for melanin production amount: 0.02 mM or 0.05 mM, relative to reference sample (induction only) = 100, p < 0.01
Experimental: B16 mouse melanoma cells were seeded in a 6 well plate (2.0 × 10^4 cells/well), and cultured for 24 hours in D-MEM medium to which 5% fetal bovine serum was added with respect to the medium (5%CO2, 37°C). […] The obtained pellets were washed twice with PBS (-), 150 µL of a 1 M sodium hydroxide solution was then added, and the mixture was treated at 100°C for 10 minutes to dissolve the pellets, thereby preparing a reference sample. […] One hundred µL of a sample of each test section was added to a 96 well plate, and the absorbance at 405 nm was measured with a microplate reader (n = 3). […] The significant difference test was performed on the measured value of the reference sample by the Dunnett method (*p < 0.05, **p < 0.01.).

[6] = molecular target: T1, tyrosinase (Mus musculus, UniProt P11344); test: Tyrosinase activity suppression test (L-DOPA, absorbance at 490 nm, cell extract); conditions: 0.05 mM or 0.1 mM at melanin induction
T1 construct: a protein extract containing tyrosinase derived from B16 mouse melanoma cells; endogenous in cells; host or cells: B16 mouse melanoma cells, alpha-MSH induced; RIPA buffer lysate supernatant
T1 sequence (P11344 19-533): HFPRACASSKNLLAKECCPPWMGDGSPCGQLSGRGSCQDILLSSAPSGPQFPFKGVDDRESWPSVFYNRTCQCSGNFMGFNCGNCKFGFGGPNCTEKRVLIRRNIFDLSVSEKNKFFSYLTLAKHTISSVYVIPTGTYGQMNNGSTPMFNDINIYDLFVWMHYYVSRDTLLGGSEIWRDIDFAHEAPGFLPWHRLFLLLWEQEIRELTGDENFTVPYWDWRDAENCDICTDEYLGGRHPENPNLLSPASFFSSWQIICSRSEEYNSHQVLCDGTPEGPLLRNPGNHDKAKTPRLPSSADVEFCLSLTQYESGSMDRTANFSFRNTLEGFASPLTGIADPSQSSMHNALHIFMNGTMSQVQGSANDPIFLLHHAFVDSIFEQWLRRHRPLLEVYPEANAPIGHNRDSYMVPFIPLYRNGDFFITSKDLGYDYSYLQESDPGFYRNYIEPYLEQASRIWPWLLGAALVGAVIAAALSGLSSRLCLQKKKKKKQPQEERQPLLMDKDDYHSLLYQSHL
Text: In addition, the tyrosinase activity in the present invention can be confirmed by adding L-DOPA having a known concentration to a protein extract containing tyrosinase derived from B16 mouse melanoma cells in which melanin is induced by a melanin inducer such as α-MSH (melanocyte stimulating hormone) to react, measuring the absorbance at 490 nm, and correcting the absorbance with the protein concentration in the protein extract. The tyrosinase activity inhibitory effect can be known by comparing the value of the absorbance at 490 nm corrected by the protein concentration measured by adding the test substance at the time of melanin induction and the same operation with the value of the test section to which the test substance is not added.
B16 mouse melanoma cells were seeded in a 6 well plate (2.0 × 10^4 cells/well), and cultured for 24 hours in D-MEM medium to which 5% fetal bovine serum was added with respect to the medium (5%CO2, 37°C). […] The protein concentration of the obtained sample was measured by the BCA method.
The same operation was performed except that melanin induction was not performed, and a reference sample was obtained. […] Fifty µL of a sample of each test section was placed in a 96 well plate (n=3), 50 µL of 0.8 mg/mL L-DOPA was added, the mixture was reacted at 37°C for 1 hour, and then the absorbance at 490 nm was measured with a microplate reader. […]

| Compound | survival rate of fibroblasts (cell proliferation rate) [1] | survival rate of normal human epidermal keratinocytes (cell proliferation rate) [2] | hyaluronic acid production capability ([3]; compared with test sections without aging induction, no significant difference) | hyaluronic acid production amount [3] | hyaluronic acid production capability ([4]; compared with control group without aging induction, no significant difference) | hyaluronic acid production amount ([4]; relative value, compared with only aging induction) | melanin production amount [5] | tyrosinase activity ([6]; compared with reference sample (no melanin induction) = 100) | tyrosinase activity ([6]; compared with test section with only melanin induction) | melanin production suppressing effect ([5]; 3 mM, compared with 0.02 mM Sample 1) |
| --- | --- | --- | --- | --- | --- | --- | --- | --- | --- | --- |
| N[C@@H](CCC(=O)N[C@@H](CSSSC[C@H](NC(=O)CC[C@H](N)C(=O)O)C(=O)NCC(=O)O)C(=O)NCC(=O)O)C(=O)O [Sample 1, oxidized glutathione trisulfide] | significant cell proliferation rate | significant cell proliferation rate | same hyaluronic acid production capability as those of the test sections that did not induce aging | significantly higher than that in the test section of only aging induction | same hyaluronic acid production capability as that of the control group in which aging is not induced | significantly higher than that in the test section of only aging induction | significantly low | same degree of tyrosinase activity as the reference sample | significantly lower than the test section in which only melanin induction was performed | – |
| CC(=O)N[C@@H](CSSSC[C@H](NC(C)=O)C(=O)O)C(=O)O [Sample 2, oxidized NAC trisulfide] | significant cell proliferation rate | – | – | significantly higher than that in the test section of only aging induction | – | – | significantly low | – | – | – |
| N[C@@H](CCC(=O)N[C@@H](CS)C(=O)NCC(=O)O)C(=O)O [reduced glutathione, reference compound] | – | – | – | – | – | – | – | – | – | same melanin production suppressing effect as the 0.02 mM test section of Sample 1 |

— EP4659758A1, “ANTI-AGING COMPOSITION” (Mitsubishi Corporation Life Sciences Limited, priority 2023, dated 2024)
